Results reported in patent US11890279B2, “Quinolines that modulate SERCA and their use for treating disease” (Neurodon Corporation, priority 2020, dated 2024).

Columns and labels:
CSM14.1 cells = assay: ER stress cell survival assay (thapsigargin); format: cell-based; details: compound 2 μM; about 15 μM thapsigargin; CSM14.1 cells;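 further: survival read as CellTiter-Glo luminescence after overnight incubation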
Procedure: ER Stress Cell Survival Assay
CSM14.1 cells were maintained in Complete Medium at 32° C.; wherein the Complete Medium contained Dulbecco's modified eagle medium (DMEM) with 10% fetal bovine serum (FSB), 1% L-glutamine, 100 IU/mL penicillin, and 100 μg/mL streptomycin. The cells were recovered from cultures by trypsinization and then seeded in 384 well plates (Greiner #781098) at a concentration of 1,000 cells/well in 20 μL of DMEM Assay Medium, wherein the DMEM Assay Medium contained 2% FBS, 100 IU/mL penicillin, and 100 μg/mL streptomycin. Seeding was performed using a MultiDrop Combi reagent broadcaster. The plates were incubated overnight at 32° C.
A test compound was prepared by 2-fold serial dilution in 100% DMSO using a BIOMEK® 2000 liquid handler (Beckman Coulter). A dose-response curve containing 10 concentrations of the test compound was obtained. Using a BIOMEK® FX liquid handler (Beckman Coulter), 2.5 μL of the test compound was transferred from the 100% DMSO serial dilution plate to an intermediate plate containing 47.5 μL of DMEM Assay Medium containing 2% FBS, 100 IU/mL penicillin, and 100 μg/mL streptomycin and mixed. To reduce or eliminate the interference from the compound's precipitation, 6 μL of the diluted compound was immediately transferred to the assay plate to achieve a high compound concentration of 100 μM in 99% DMEM Assay Medium and 1% DMSO. After the assay plates were incubated for 2 hrs, 4 μL of 112.5 μM thapsigargin (TG) (DMSO stock diluted into Assay TC Medium) was dispensed into each testing well with a MultiDrop Combi reagent broadcaster for a final concentration of about 15 μM TG. The tissue culture media (4 μL) containing vehicle only was transferred manually to each control cell using a 16 channel electronic pipette. […] High luminescence indicates cell survival.
Alternatively, a test compound was tested at a single compound concentration (e.g., 2 μM) to determine the effect of the compound on cell survival in comparison with vehicle.

N2a cells = assay: Protection against hydrogen peroxide-induced cell death, N2a; format: cell-based, mouse; details: compound 40 μM; hydrogen peroxide 200 μM
Procedure: Protection against Hydrogen Peroxide-induced Cell-death. N2a cells grown in 96-well plates were exposed to a test compound (40 μM) for 2 hrs before addition of hydrogen peroxide (200 μM). After 40 min of incubation with hydrogen peroxide, ALAMARBLUE® regent (10% v/v) was added to the wells. Fluorescence reading was taken 2 hrs after the addition of the ALAMARBLUE® regent. Cell-viability was calculated as a percentage of relative fluorescence unit (RFU) compared to control.
The results are summarized in Table 2, where A represents a value greater than 50% cell rescue, B represents a value between 10% to 50% cell rescue, C represents a value between 1% to 10% cell rescue, and D represents a value no greater than 1% cell rescue.

[1] = Pharmacokinetics in CD-1 mice; format: in vivo, mouse; details: CD-1 mice
Procedure: Pharmacokinetics of test compounds were assessed in CD-1 mice. The compounds were formulated at 1 mg/mL in DMSO/Tween 80/water (10/10/80, vol/vol/vol) and dosed at 2 mg/kg intravenous (i.v.) or 10 mg/kg by oral gavage (P.O.) in triplicate. Blood was drawn at 0.25 h, 0.5 h, 1 hr, 2 hrs, 4 hrs, 8 hrs, and 24 hrs into EDTA containing tubes and plasma was harvested by centrifugation. Plasma (10 μL) containing 50% acetonitrile in water (5 μL) was added to 200 μL of ACN containing an internal standard. The samples were vortexed for 30 s. After centrifugation at […] and 4,000 rpm for 15 min, the supernatant was diluted 3 times with water. Then, 20 μL of diluted supernatant was injected into the LC/MS/MS system for quantitative analysis. The samples were injected onto an Agilent ZORBAX XDB-Phenyl 5μ column (50×2.10 mm). Mobile Phase A was water with 0.1% formic acid. Mobile Phase B was acetonitrile with 0.1% formic acid. Separation was achieved using a gradient of 70% A/30% B to 0% A/100% B over 2.10 min. A Shimadzu LCMS-8050 equipped with a turbo ion spray source was used for all analytical measurements. A positive ion MRM method was developed. Peak areas of the product ion were measured against the peak areas of the internal standard. Data was fit using WinNonLin (Pharsight Corporation, Mountain View, CA).

[2] = mouse, plasma, 2 mg/kg i.v. or 10 mg/kg P.O.

SMILES	Cell Survival (CSM14.1 cells)	N2a Cells (H2O2-induced) cell rescue (N2a cells)	other results
Cc1ccc2cccc(NC(=O)c3ccc(Br)cc3)c2n1 [Compound C1, 4-Bromo-N-(2-methylquinolin-8-yl)benzamide]	A (A represents a value greater than 50%)	–	–
Cc1ccc2cccc(NC(=O)c3ccccc3F)c2n1 [Compound C2, 2-Fluoro-N-(2-methylquinolin-8-yl)benzamide]	A (A represents a value greater than 50%)	–	–
Cc1ccc2cccc(NC(=O)c3ccccc3[N+](=O)[O-])c2n1 [Compound C3, 2-Nitro-N-(2-methylquinolin-8-yl)benzamide]	B (B represents a value between 10% and 50%)	–	–
Cc1ccc2cccc(NC(=O)c3cccc(OC(F)(F)F)c3)c2n1 [Compound C4, 3-Trifluoromethoxy-N-(2-methylquinolin-8-yl)benzamide]	B (B represents a value between 10% and 50%)	–	–
Cc1ccc2cccc(NC(=O)c3cccc(F)c3)c2n1 [Compound C6, 3-Fluoro-N-(2-methylquinolin-8-yl)benzamide]	C (C represents a value between 1% and 10%)	–	–
Cc1ccc2cccc(NC(=O)c3cccc([N+](=O)[O-])c3)c2n1 [Compound C7, 3-Nitro-N-(2-methylquinolin-8-yl)benzamide]	C (C represents a value between 1% and 10%)	–	–
Cc1ccc2cccc(NC(=O)c3ccc([N+](=O)[O-])cc3)c2n1 [Compound C8, 4-Nitro-N-(2-methylquinolin-8-yl)benzamide]	D (D represents a value no greater than 1%)	–	–
Cc1ccc2cccc(NC(=O)c3ccccc3Cl)c2n1 [Compound C9, 2-Chloro-N-(2-methylquinolin-8-yl)benzamide]	D (D represents a value no greater than 1%)	–	–
Cc1ccc2cccc(NC(=O)c3ccc(OC(F)(F)F)cc3)c2n1 [Compound C11, 4-Trifluoromethoxy-N-(2-methylquinolin-8-yl)benzamide]	D (D represents a value no greater than 1%)	–	–
Cc1ccc2cccc(NC(=O)c3cccc(C(F)(F)F)c3)c2n1 [Compound C12, 3-Trifluoromethyl-N-(2-methylquinolin-8-yl)benzamide]	D (D represents a value no greater than 1%)	–	–
CCOc1ccc(C(=O)Nc2cccc3ccc(C)nc23)cc1 [Compound C13, 4-Ethoxy-N-(2-methylquinolin-8-yl)benzamide]	D (D represents a value no greater than 1%)	–	–
Cc1ccc2cccc(NC(=O)c3ccc(F)cc3)c2n1 [Compound C14, 4-Fluoro-N-(2-methylquinolin-8-yl)benzamide]	D (D represents a value no greater than 1%)	–	–
Cc1ccc2cccc(NC(=O)c3cccc(Cl)c3)c2n1 [Compound C15, 3-Chloro-N-(2-methylquinolin-8-yl)benzamide]	D (D represents a value no greater than 1%)	–	–
Cc1ccc2cccc(NC(=O)c3cccc(Br)c3)c2n1 [Compound C16, 3-Bromo-N-(2-methylquinolin-8-yl)benzamide]	D (D represents a value no greater than 1%)	–	–
Cc1ccc2cccc(NC(=O)c3ccc(Cl)cc3)c2n1 [Compound C17, 4-Chloro-N-(2-methylquinolin-8-yl)benzamide]	D (D represents a value no greater than 1%)	–	–
Cc1ccc2cccc(NC(=O)c3ccc(SC(C)C)cc3)c2n1 [Compound C21, 4-(Isopropylthio)-N-(2-methylquinolin-8-yl)benzamide]	C (C represents a value between 1% and 10%)	–	–

SMILES	Cell Survival (CSM14.1 cells)	N2a Cells (H2O2-induced) cell rescue (N2a cells)	other results
Cc1ccc2cccc(NC(=O)c3cccs3)c2n1 [Compound G1, N-(2-Methylquinolin-8-yl)thiophene-2-carboxamide]	–	B (B represents a value between 10% to 50% cell rescue)	–
Cc1ccc2cccc(NC(=O)c3sccc3C)c2n1 [Compound G3, 3-Methyl-N-(2-methylquinolin-8-yl)thiophene-2-carboxamide]	–	B (B represents a value between 10% to 50% cell rescue)	–
Cc1ccc2cccc(NC(=O)c3ccc(Cl)s3)c2n1 [Compound G4, 5-Chloro-N-(2_methylquinolin-8-yl)thiophene-2-carboxamide]	–	B (B represents a value between 10% to 50% cell rescue)	–
CC(=O)c1ccc(C(=O)Nc2cccc3ccc(C)nc23)s1 [Compound G5, 5-Acetyl-N-(2-methylquinolin-8-yl)thiophene-2-carboxamide]	–	B (B represents a value between 10% to 50% cell rescue)	–
Cc1ccc2cccc(NC(=O)c3cc(Br)cs3)c2n1 [Compound G8, 4-Bromo-N-(2-methylquinolin-8-yl)thiophene-2-carboxamide]	–	–	F ([1]; 10 mg/kg P.O. vs 2 mg/kg i.v.): 0.12%; AUC [1, 2]: 0.78 ng·h/mL; Cmax [1, 2]: 10 nM; half-life [1, 2]: 36 min
O=C(Nc1cccc2cccnc12)c1ccc(Br)s1 [Compound H1, 5-Bromo-N-(quinolin-8-yl)thiophene-2-carboxamide]	–	B (B represents a value between 10% to 50% cell rescue)	–
O=C(Nc1cccc2cccnc12)c1cccs1 [Compound H2, N-(quinolin-8-yl)thiophene-2-carboxamide]	–	B (B represents a value between 10% to 50% cell rescue)	–
Cc1ccc(C(=O)Nc2cccc3cccnc23)s1 [Compound H3, 5-Methyl-N-(quinolin-8-yl)thiophene-2-carboxamide]	–	A (A represents a value greater than 50% cell rescue)	–
Cc1ccsc1C(=O)Nc1cccc2cccnc12 [Compound H4, 3-Methyl-N-(quinolin-8-yl)thiophene-2-carboxamide]	–	A (A represents a value greater than 50% cell rescue)	–
O=C(Nc1cccc2cccnc12)c1ccc(Cl)s1 [Compound H5, 5-Chloro-N-(quinolin-8-yl)thiophene-2-carboxamide]	–	B (B represents a value between 10% to 50% cell rescue)	–
CC(=O)c1ccc(C(=O)Nc2cccc3cccnc23)s1 [Compound H6, 5-Acetyl-N-(quinolin-8-yl)thiophene-2-carboxamide]	–	B (B represents a value between 10% to 50% cell rescue)	–
O=C(Nc1cccc2cccnc12)c1cc2ccccc2o1 [Compound H7, N-(Quinolin-8-yl)benzofuran-2-carboxamide]	–	B (B represents a value between 10% to 50% cell rescue)	–
O=C(Nc1cccc2cccnc12)c1ccc([N+](=O)[O-])s1 [Compound H8, 5-Nitro-N-(quinolin-8-yl)thiophene-2-carboxamide]	–	B (B represents a value between 10% to 50% cell rescue)	–
O=C(Nc1cccc2cccnc12)c1cc(Br)cs1 [Compound H9, 4-Bromo-N-(quinolin-8-yl)thiophene-2-carboxamide]	–	A (A represents a value greater than 50% cell rescue)	–
O=C(Nc1cccc2cccnc12)c1sc(Br)cc1Br [Compound H10, 3,5-Dibromo-N-(quinolin-8-yl)thiophene-2-carboxamide]	–	B (B represents a value between 10% to 50% cell rescue)	–
O=C(Nc1cccc2cccnc12)c1cc(Br)c(Br)s1 [Compound H11, 4,5-Dibromo-N-(quinolin-8-yl)thiophene-2-carboxamide]	–	A (A represents a value greater than 50% cell rescue)	–
